# Laboratory results from ChEMBL document CHEMBL5233262, “Anti-inflammatory activity of naturally occuring diarylheptanoids - A review” (Bioorg Med Chem, 2021).
# pIC50: −log10 of the molar value.
# Tests used:
# [1] = test system: RAW264.7; test: Antiinflammatory activity in mouse RAW264.7 cells assessed as inhibition of LPS-induced NO production at 10 ug/ml incubated for 20 hrs by Griess reagent based microplate reader analysis; format: functional
# [2] = test system: RAW264.7; test: Antiinflammatory activity in mouse RAW264.7 cells assessed as inhibition of LPS-induced NO production incubated for 20 hrs by Griess reagent based microplate reader analysis; format: functional, cell-based; conditions: RAW264.7, 20 h
# [3] = test system: RAW264.7; test: Antiinflammatory activity in mouse RAW264.7 cells assessed as inhibition of LPS-induced NO production at 30 uM preincubated for 0.5 hrs followed by LPS stimulation and measured after 24 hrs by Griess reagent based analysis; format: functional; conditions: time 24.5 hrs
# [4] = test system: J774.A1; test: Antiinflammatory activity in mouse J774.A1 cells assessed as inhibition of LPS-induced NO production incubated for 24 hrs by Griess reagent based analysis; format: functional, cell-based; conditions: J774.A1, 24 h
# [5] = test system: Mus musculus; test: Antiinflammatory activity in ICR mouse model of TPA-induced ear edema assessed as inhibition of ear inflammation at 1 mg,TOP for 30 mins followed by TPA addition and measured after 6 hrs; format: functional; conditions: time 390 min, 6.5 h
# [6] = test system: Rattus norvegicus; test: Antiinflammatory activity in rat model of ethyl phenylpropiolate-induced ear edema assessed as reduction in ear thickness administered topically and measured after 1 hr; format: functional
# [7] = test system: Rattus norvegicus; test: Antiinflammatory activity in rat model of ethyl phenylpropiolate-induced ear edema assessed as 30% reduction in ear thickness administered topically and measured after 1 hr; format: functional
# [8] = test system: Rattus norvegicus; test: Antiinflammatory activity in rat model of ethyl phenylpropiolate-induced ear edema assessed as 30% reduction in ear thickness administered topically and measured after 30 mins; format: functional; conditions: 0.5 h
# [9] = test system: Rattus norvegicus; test: Antiinflammatory activity in rat model of ethyl phenylpropiolate-induced ear edema assessed as reduction in ear thickness administered topically and measured after 30 mins; format: functional; conditions: 0.5 h
# [10] = Inhibition of COX in bovine seminal vesicle assessed as reduction in PGE2 production using arachidonic acid as substrate; format: tissue-based, Bos taurus
# [11] = test system: Zingiber officinale; test: Inhibition of prostaglandin biosynthesis in ginger; format: functional, organism-based
# [12] = test system: Mus musculus; test: Antiinflammatory activity in ICR mouse model of TPA-induced ear edema assessed as inhibition of ear inflammation at 20 uM,TOP for 30 mins followed by TPA addition and measured after 5 hrs; format: functional; conditions: 5.5 h, time 330 min
# [13] = molecular target: T1, Polyunsaturated fatty acid 5-lipoxygenase (Homo sapiens, UniProt P09917); test: Inhibition of 5-LOX in human neutrophils assessed as reduction in 5-HETE formation preincubated for 5 mins followed by arachidonic acid and A23187 addition and measured after 5 mins by RP-HPLC analysis; format: cell-based, Neutrophil
# T1 sequence (P09917 whole entry): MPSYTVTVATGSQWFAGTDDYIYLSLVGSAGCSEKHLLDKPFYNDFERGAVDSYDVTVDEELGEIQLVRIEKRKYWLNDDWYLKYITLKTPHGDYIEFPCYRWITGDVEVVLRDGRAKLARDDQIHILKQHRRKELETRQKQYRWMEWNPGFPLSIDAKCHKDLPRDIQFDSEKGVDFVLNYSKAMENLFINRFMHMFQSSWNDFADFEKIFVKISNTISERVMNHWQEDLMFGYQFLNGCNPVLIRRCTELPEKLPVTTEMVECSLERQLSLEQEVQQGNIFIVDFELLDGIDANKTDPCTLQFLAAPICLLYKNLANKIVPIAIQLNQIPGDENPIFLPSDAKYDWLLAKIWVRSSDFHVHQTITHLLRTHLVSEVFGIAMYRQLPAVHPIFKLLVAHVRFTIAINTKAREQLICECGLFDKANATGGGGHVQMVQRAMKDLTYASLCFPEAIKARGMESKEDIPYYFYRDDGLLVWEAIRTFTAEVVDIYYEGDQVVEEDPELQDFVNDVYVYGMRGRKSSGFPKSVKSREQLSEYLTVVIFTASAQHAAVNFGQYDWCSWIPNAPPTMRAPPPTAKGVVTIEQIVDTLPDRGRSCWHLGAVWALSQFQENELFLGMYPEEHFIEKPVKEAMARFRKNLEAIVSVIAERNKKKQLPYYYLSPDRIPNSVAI
structure (smiles),measurement,setting,value
COc1cc(CCC(O)CC(O)CCc2ccccc2)ccc1O (stereo not drawn),inhibition at 10 µg/mL,[1],27%
same,pIC50,[2],< 4.52
OC[C@H]1O[C@@H](O[C@H](CCCCc2ccc(O)cc2)CCc2ccc(O)cc2)[C@H](O)[C@@H](O)[C@@H]1O,inhibition at 30 µM,[3],24%
same,pIC50,[4],4.00
same,ID50,[5],0.66 mg
CCCCC1C(=O)N(c2ccccc2)N(c2ccc(O)cc2)C1=O (stereo not drawn) [OXYPHENBUTAZONE ANHYDROUS],ID50,[6],46 µg
same,ID30,[7],0.3 µg
same,ID30,[8],0.2 µg
same,ID50,[9],12 µg
COc1cc(CCC(=O)CCCCc2ccccc2)ccc1O,pIC50,[10],4.80
same,pIC50,[11],6.30
same,inhibition in vivo at 20 µM,[12],43%
same,pIC50,[13],5.27
